Tests used:
P12-Ichikawa [1] = experiment: AUC of viability dose-response curve (% viability x log10 dose units); higher = less sensitive; conditions: 48 h
Summary of the method: (§1)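 Seeding of medium-adapted leukemia cells was at 500 or 1000 cells/well in 1536-well plates, followed by 48 h at 37°C with library compounds in DMSO at 11 threefold doses from 47 μM to 0.79 nM. CellTiter-Glo One luminescence was normalised per plate to DMSO and cell-free wells and fitted as a four-parameter log-logistic function of log10 dose. Area under the curve was integrated by trapezoidal rule, with curves exceeding full viability scaled and curves failing quality control removed.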

NOMO1 [2] = experiment: as above; conditions: 48 h
Summary of the method: as §1

SEM cells [3] = experiment: as above; conditions: 48 h
Summary of the method: as §1

P12-Ichikawa [4] = experiment: cell viability relative to DMSO control; higher = less cytotoxic; conditions: HPLM + 10% dialyzed FBS, 48 h
Summary of the method: (§2)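 Viability was expressed as a per-plate percentage of DMSO wells, with cell-free wells as background. Leukemia cells (NOMO1 or SEM at 500 cells/well, P12-Ichikawa at 1000 cells/well) were adapted for at least four passages in each medium and seeded in 1536-well plates (5 μl). Library compounds in DMSO were pin-dosed over an 11-point threefold series from 47 μM to 0.79 nM, and CellTiter-Glo One luminescence was read after 48 h at 37°C.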

NOMO1 [5] = experiment: as above; conditions: RPMI 5 mM glucose + 10% FBS, 48 h
Summary of the method: as §2

SEM cells [6] = experiment: as above; conditions: 48 h
Summary of the method: as §2

CC1(C)S[C@H]2[C@H](NC(=O)[C@@H](N)C3=CC=C(O)C=C3)C(=O)[N@]2[C@H]1C(O)=O
AUC of viability dose-response curve
Conditions	NOMO1 [2]	P12-Ichikawa [1]	SEM cells [3]
HPLM + 10% dialyzed FBS	383	394	456
RPMI 5 mM glucose + 10% FBS	394	394	441
RPMI 5 mM glucose + 10% dialyzed FBS	393	383	461

C[C@H]([C@H]1C\C(=C(CO)/C(=O)O1)C)[C@H]2CC[C@H]3[C@@H]4C[C@H]5O[C@]56[C@@H](O)\C=C/C(=O)[C@]6(C)[C@H]4CC[C@]23C
Conditions	AUC of viability dose-response curve	cell viability [%]
NOMO1 [2], HPLM + 10% dialyzed FBS	271	–
NOMO1 [2], RPMI 5 mM glucose + 10% FBS	283	–
NOMO1 [2], RPMI 5 mM glucose + 10% dialyzed FBS	286	–
NOMO1 [5], 0.000781 µM	–	133
NOMO1 [5], 0.00234 µM	–	123
NOMO1 [5], 0.00702 µM	–	122
NOMO1 [5], 0.0211 µM	–	128
NOMO1 [5], 0.0632 µM	–	119
NOMO1 [5], 0.19 µM	–	115
NOMO1 [5], 0.569 µM	–	28.6
NOMO1 [5], 1.71 µM	–	20.5
NOMO1 [5], 5.12 µM	–	9.85
NOMO1 [5], 15.4 µM	–	6.35
NOMO1 [5], 46.1 µM	–	3.75
P12-Ichikawa [1], HPLM + 10% dialyzed FBS	263	–
P12-Ichikawa [1], RPMI 5 mM glucose + 10% FBS	258	–
P12-Ichikawa [1], RPMI 5 mM glucose + 10% dialyzed FBS	261	–
P12-Ichikawa [4], 0.000781 µM	–	126
P12-Ichikawa [4], 0.00234 µM	–	124
P12-Ichikawa [4], 0.00702 µM	–	123
P12-Ichikawa [4], 0.0211 µM	–	129
P12-Ichikawa [4], 0.0632 µM	–	121
P12-Ichikawa [4], 0.19 µM	–	100
P12-Ichikawa [4], 0.569 µM	–	11.3
P12-Ichikawa [4], 1.71 µM	–	7.84
P12-Ichikawa [4], 5.12 µM	–	5.43
P12-Ichikawa [4], 15.4 µM	–	3.44
P12-Ichikawa [4], 46.1 µM	–	1.95
SEM cells [3], HPLM + 10% dialyzed FBS	259	–
SEM cells [3], RPMI 5 mM glucose + 10% FBS	253	–
SEM cells [3], RPMI 5 mM glucose + 10% dialyzed FBS	260	–

CCC1=C2C=C(OC(=O)N3CCC(CC3)N4CCCCC4)C=CC2=NC\5=C1CN6C(=O)\C7=C(/C=C56)[C@@](O)(CC)C(=O)OC7
SEM cells [6], RPMI 5 mM glucose + 10% FBS
Conditions	cell viability [%]
0.000781 µM	110
0.00234 µM	127
0.00702 µM	104
0.0211 µM	106
0.0632 µM	49.5
0.19 µM	104
0.569 µM	107
1.71 µM	65.2
5.12 µM	15.4
15.4 µM	13.1
46.1 µM	9.69

AUC of viability dose-response curve
Conditions	NOMO1 [2]	P12-Ichikawa [1]	SEM cells [3]
HPLM + 10% dialyzed FBS	380	324	366
RPMI 5 mM glucose + 10% FBS	380	313	356
RPMI 5 mM glucose + 10% dialyzed FBS	380	326	353

Cn1c(CCCC(=O)O)nc2cc(N(CCCl)CCCl)ccc21
AUC of viability dose-response curve
Conditions	NOMO1 [2]	P12-Ichikawa [1]	SEM cells [3]
HPLM + 10% dialyzed FBS	452	438	456
RPMI 5 mM glucose + 10% FBS	441	457	414
RPMI 5 mM glucose + 10% dialyzed FBS	453	451	447

CC(C)(Cc1ccc2ccccc2c1)NC[C@@H](O)COc1cccc(Cl)c1C#N
Conditions	AUC of viability dose-response curve	cell viability [%]
NOMO1 [2], HPLM + 10% dialyzed FBS	458	–
NOMO1 [2], RPMI 5 mM glucose + 10% FBS	455	–
NOMO1 [2], RPMI 5 mM glucose + 10% dialyzed FBS	451	–
P12-Ichikawa [1], HPLM + 10% dialyzed FBS	453	–
P12-Ichikawa [1], RPMI 5 mM glucose + 10% FBS	449	–
P12-Ichikawa [1], RPMI 5 mM glucose + 10% dialyzed FBS	451	–
P12-Ichikawa [4], 0.000781 µM	–	123
P12-Ichikawa [4], 0.00234 µM	–	124
P12-Ichikawa [4], 0.00702 µM	–	126
P12-Ichikawa [4], 0.0211 µM	–	122
P12-Ichikawa [4], 0.0632 µM	–	121
P12-Ichikawa [4], 0.19 µM	–	120
P12-Ichikawa [4], 0.569 µM	–	123
P12-Ichikawa [4], 1.71 µM	–	116
P12-Ichikawa [4], 5.12 µM	–	123
P12-Ichikawa [4], 15.4 µM	–	117
P12-Ichikawa [4], 46.1 µM	–	10.7
SEM cells [3], HPLM + 10% dialyzed FBS	448	–
SEM cells [3], RPMI 5 mM glucose + 10% FBS	466	–
SEM cells [3], RPMI 5 mM glucose + 10% dialyzed FBS	438	–

cell viability [%], SEM cells [6]
Conditions	HPLM + 10% dialyzed FBS	RPMI 5 mM glucose + 10% FBS
0.000781 µM	128	127
0.00234 µM	121	113
0.00702 µM	125	120
0.0211 µM	121	116
0.0632 µM	124	124
0.19 µM	123	121
0.569 µM	119	115
1.71 µM	120	126
5.12 µM	108	86
15.4 µM	96.7	128
46.1 µM	65.7	62.8

CCN1CCN(Cc2ccc(-c3cc4c(N[C@H](C)c5ccccc5)ncnc4[nH]3)cc2)CC1
SEM cells [6], HPLM + 10% dialyzed FBS
Conditions	cell viability [%]
0.000781 µM	130
0.00234 µM	124
0.00702 µM	125
0.0211 µM	132
0.0632 µM	116
0.19 µM	116
0.569 µM	109
1.71 µM	98.5
5.12 µM	74.7
15.4 µM	51.1
46.1 µM	8.14

AUC of viability dose-response curve
Conditions	NOMO1 [2]	P12-Ichikawa [1]	SEM cells [3]
HPLM + 10% dialyzed FBS	439	448	384
RPMI 5 mM glucose + 10% FBS	460	463	375
RPMI 5 mM glucose + 10% dialyzed FBS	457	461	388
